Assay results as given in ChEMBL document CHEMBL1201862, “PubChem BioAssay data set” (2004).
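Method: 48-hour compound exposure of cells in 96-well plates, five concentrations, linear interpolation of endpoints. GI50 marks 50% less growth.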 The source made the active and inactive calls. Cut-off read from the data, not from the text of the source: active = GI50 up to about 1.1 µM and inactive = higher.

Key:
Assay in all cases: NCI tumour cell line growth inhibition, 48 h
[1] = tested on: 786-0
[2] = tested on: A549
[3] = tested on: ACHN
[4] = tested on: CAKI-1
[5] = tested on: CCRF-CEM
[6] = tested on: COLO 205
[7] = tested on: DU-145
[8] = tested on: EKVX
[9] = tested on: HCC 2998
[10] = tested on: HCT-116
[11] = tested on: HCT-15
[12] = tested on: HL-60
[13] = tested on: HOP-62
[14] = tested on: HOP-92
[15] = tested on: HT-29
[16] = tested on: Hs-578T
[17] = tested on: IGROV-1
[18] = tested on: K562
[19] = tested on: KM12
[20] = tested on: LOX IMVI
[21] = tested on: M14
[22] = tested on: MCF7
[23] = tested on: MDA-MB-231
[24] = tested on: MDA-MB-435
[25] = tested on: MDA-N
[26] = tested on: MOLT-4
[27] = tested on: Malme-3M
[28] = tested on: NCI-H226
[29] = tested on: NCI-H23
[30] = tested on: NCI-H460
[31] = tested on: NCI-H522
[32] = tested on: NCI/ADR-RES
[33] = tested on: OVCAR-3
[34] = tested on: OVCAR-4
[35] = tested on: OVCAR-5
[36] = tested on: OVCAR-8
[37] = tested on: PC-3
[38] = tested on: RPMI-8226
[39] = tested on: RXF 393
[40] = tested on: SF-268
[41] = tested on: SF-295
[42] = tested on: SF-539
[43] = tested on: SK-MEL-28
[44] = tested on: SK-MEL-2
[45] = tested on: SK-MEL-5
[46] = tested on: SK-OV-3
[47] = tested on: SN12C
[48] = tested on: SNB-19
[49] = tested on: SNB-75
[50] = tested on: SR
[51] = tested on: SW-620
[52] = tested on: T47D
[53] = tested on: TK-10
[54] = tested on: U-251
[55] = tested on: UACC-257
[56] = tested on: UACC-62
[57] = tested on: UO-31
[58] = tested on: A498
[59] = tested on: BT-549

CSCCC(NCc1c(O)ccc2c(-c3ccccc3)cc(=O)oc12)C(=O)O (stereo not given)
GI50 [1]: > 100 µM (inactive)
GI50 [2]: > 100 µM (inactive)
GI50 [3]: > 100 µM (inactive)
GI50 [4]: > 100 µM (inactive)
GI50 [5]: > 100 µM (inactive)
GI50 [6]: > 100 µM (inactive)
GI50 [7]: > 100 µM (inactive)
GI50 [8]: > 100 µM (inactive)
GI50 [9]: > 100 µM (inactive)
GI50 [10]: > 100 µM (inactive)
GI50 [11]: > 100 µM
GI50 [12]: > 100 µM (inactive)
GI50 [13]: > 100 µM (inactive)
GI50 [14]: > 100 µM (inactive)
GI50 [15]: > 100 µM (inactive)
GI50 [16]: > 100 µM (inactive)
GI50 [17]: > 100 µM (inactive)
GI50 [18]: > 100 µM (inactive)
GI50 [19]: > 100 µM (inactive)
GI50 [20]: > 100 µM (inactive)
GI50 [21]: > 100 µM (inactive)
GI50 [22]: > 100 µM (inactive)
GI50 [23]: > 100 µM (inactive)
GI50 [24]: > 100 µM (inactive)
GI50 [25]: > 100 µM (inactive)
GI50 [26]: > 100 µM (inactive)
GI50 [27]: > 100 µM (inactive)
GI50 [28]: > 100 µM (inactive)
GI50 [29]: > 100 µM (inactive)
GI50 [30]: > 100 µM (inactive)
GI50 [31]: > 100 µM (inactive)
GI50 [32]: > 100 µM (inactive)
GI50 [33]: > 100 µM (inactive)
GI50 [34]: > 100 µM (inactive)
GI50 [35]: > 100 µM (inactive)
GI50 [36]: > 100 µM (inactive)
GI50 [37]: > 100 µM (inactive)
GI50 [38]: > 100 µM (inactive)
GI50 [39]: > 100 µM (inactive)
GI50 [40]: > 100 µM (inactive)
GI50 [41]: > 100 µM (inactive)
GI50 [42]: > 100 µM (inactive)
GI50 [43]: > 100 µM (inactive)
GI50 [44]: > 100 µM (inactive)
GI50 [45]: > 100 µM (inactive)
GI50 [46]: > 100 µM (inactive)
GI50 [47]: > 100 µM (inactive)
GI50 [48]: > 100 µM (inactive)
GI50 [49]: > 100 µM (inactive)
GI50 [50]: > 100 µM (inactive)
GI50 [51]: > 100 µM (inactive)
GI50 [52]: > 100 µM (inactive)
GI50 [53]: > 100 µM (inactive)
GI50 [54]: > 100 µM (inactive)
GI50 [55]: > 100 µM (inactive)
GI50 [56]: > 100 µM (inactive)
GI50 [57]: > 100 µM (inactive)

O=C(O)CNC(=O)c1ccc(-c2ccccc2)cc1
GI50 [1]: > 100 µM (inactive)
GI50 [58]: > 100 µM (inactive)
GI50 [2]: > 100 µM (inactive)
GI50 [3]: > 100 µM (inactive)
GI50 [4]: > 100 µM (inactive)
GI50 [5]: > 100 µM (inactive)
GI50 [6]: > 100 µM (inactive)
GI50 [7]: > 100 µM (inactive)
GI50 [8]: > 100 µM (inactive)
GI50 [9]: > 100 µM (inactive)
GI50 [10]: > 100 µM (inactive)
GI50 [11]: > 100 µM
GI50 [12]: > 100 µM (inactive)
GI50 [13]: > 100 µM (inactive)
GI50 [14]: 61.1 µM (inactive)
GI50 [16]: 75.7 µM (inactive)
GI50 [17]: > 100 µM (inactive)
GI50 [18]: > 100 µM (inactive)
GI50 [19]: > 100 µM (inactive)
GI50 [20]: > 100 µM (inactive)
GI50 [21]: > 100 µM (inactive)
GI50 [22]: > 100 µM (inactive)
GI50 [23]: > 100 µM (inactive)
GI50 [24]: > 100 µM (inactive)
GI50 [25]: > 100 µM (inactive)
GI50 [26]: > 100 µM (inactive)
GI50 [27]: > 100 µM (inactive)
GI50 [28]: > 100 µM (inactive)
GI50 [29]: > 100 µM (inactive)
GI50 [30]: > 100 µM (inactive)
GI50 [31]: > 100 µM (inactive)
GI50 [32]: > 100 µM (inactive)
GI50 [33]: > 100 µM (inactive)
GI50 [35]: > 100 µM (inactive)
GI50 [36]: > 100 µM (inactive)
GI50 [37]: > 100 µM (inactive)
GI50 [38]: > 100 µM (inactive)
GI50 [39]: > 100 µM (inactive)
GI50 [40]: > 100 µM (inactive)
GI50 [41]: > 100 µM (inactive)
GI50 [42]: > 100 µM (inactive)
GI50 [43]: > 100 µM (inactive)
GI50 [44]: > 100 µM (inactive)
GI50 [45]: > 100 µM (inactive)
GI50 [46]: > 100 µM (inactive)
GI50 [47]: > 100 µM (inactive)
GI50 [48]: > 100 µM (inactive)
GI50 [50]: > 100 µM (inactive)
GI50 [51]: > 100 µM (inactive)
GI50 [52]: > 100 µM (inactive)
GI50 [53]: > 100 µM (inactive)
GI50 [54]: > 100 µM (inactive)
GI50 [55]: > 100 µM (inactive)
GI50 [56]: > 100 µM (inactive)
GI50 [57]: > 100 µM (inactive)

COc1ccc(-n2sc3ncc(-c4ccccc4)cc3c2=O)cc1
GI50 [1]: 18.6 µM (inactive)
GI50 [58]: > 100 µM (inactive)
GI50 [2]: 35.9 µM (inactive)
GI50 [3]: 21.6 µM (inactive)
GI50 [59]: 94 µM (inactive)
GI50 [4]: 27.4 µM (inactive)
GI50 [5]: 39.4 µM (inactive)
GI50 [6]: 56.4 µM (inactive)
GI50 [7]: 61.7 µM (inactive)
GI50 [8]: 69.5 µM (inactive)
GI50 [9]: 92.7 µM (inactive)
GI50 [10]: 23.1 µM (inactive)
GI50 [11]: 35.6 µM
GI50 [12]: 20.5 µM (inactive)
GI50 [13]: > 100 µM (inactive)
GI50 [14]: 42.5 µM (inactive)
GI50 [17]: 22.1 µM (inactive)
GI50 [19]: 50 µM (inactive)
GI50 [20]: 32.1 µM (inactive)
GI50 [21]: 80 µM (inactive)
GI50 [22]: 28.6 µM (inactive)
GI50 [24]: 40.6 µM (inactive)
GI50 [28]: 82.2 µM (inactive)
GI50 [29]: 23.3 µM (inactive)
GI50 [30]: > 100 µM (inactive)
GI50 [32]: 72.9 µM (inactive)
GI50 [33]: 20.3 µM (inactive)
GI50 [34]: 23.3 µM (inactive)
GI50 [35]: 26.2 µM (inactive)
GI50 [36]: 25.5 µM (inactive)
GI50 [37]: 42.9 µM (inactive)
GI50 [38]: 18.2 µM (inactive)
GI50 [39]: 40.2 µM (inactive)
GI50 [41]: > 100 µM (inactive)
GI50 [43]: 37 µM (inactive)
GI50 [44]: > 100 µM (inactive)
GI50 [45]: 55.2 µM (inactive)
GI50 [46]: > 100 µM (inactive)
GI50 [47]: 27.9 µM (inactive)
GI50 [48]: 29.4 µM (inactive)
GI50 [49]: 34.5 µM (inactive)
GI50 [51]: 30.7 µM (inactive)
GI50 [52]: > 100 µM (inactive)
GI50 [53]: 66.1 µM (inactive)
GI50 [54]: 27.6 µM (inactive)
GI50 [55]: 57.8 µM (inactive)
GI50 [56]: 31 µM (inactive)
GI50 [57]: 21.7 µM (inactive)
